Data on 29 compounds can be found in paper PMC11758220, “Identification of a Privileged Scaffold for Inhibition of Sterol Transport Proteins through the Synthesis and Ring Distortion of Diverse, Pseudo-Natural Products” (ACS Central Science, 2025).

Molecules are shown by their SMILES.

One experiment has as its target T1, Aster-A (Homo sapiens, UniProt Q96CP6).
T1 construct: Aster-A(359-547); GST (PreScission-cleavable) (N, cleaved yes); made in house; host or cells: E. coli OverExpress C41
T1 sequence (Q96CP6 359-547): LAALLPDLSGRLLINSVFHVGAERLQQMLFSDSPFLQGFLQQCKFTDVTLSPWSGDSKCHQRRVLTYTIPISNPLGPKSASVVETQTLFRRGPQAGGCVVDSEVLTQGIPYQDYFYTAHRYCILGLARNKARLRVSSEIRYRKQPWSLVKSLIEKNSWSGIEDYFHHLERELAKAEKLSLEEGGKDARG
The experiment in a line: Fluorescence polarisation (FP) competition with NBD-cholesterol, Aster-A. The class given is binding. As to conditions: for inhibition at 10 µM / Aster-A (FP) inhibition: single dose, Dose = 10 µM; for IC50: mean of three experiments run in technical duplicates. The text has this: (§1) Protein expression constructs
(§2) Human ASTER domains of Aster-A(359-547), -B(364-552) and -C(318-504) were subcloned into a pGEX-6p-2rbs vector, thus introducing the cloning artifact ‘GPLGS’.3 The pGEX-6P-1-GST-OSBP(377- […]
(§3) a gift from James H. Hurley (University of California).4 The pHIS_2His6_Thrombin_STARD4(2-205;C75S) plasmid was a gift from Young Jun Im (Chonnam National University).5 STARD5A was a gift from Nicola Burgess-Brown (Addgene plasmid #42392; http://n2t.net/addgene:42392; […]
(§4) Protein expression and purification […]
(§5) vectors including an N-terminal PreScission-cleavable glutathione S-transferase (GST)-tag were expressed in Escherichia coli (E. coli) OverExpress C41 in Terrific Broth (TB) medium for 16 h at 18 °C after the induction with 0.1 mM isopropyl β-D-1-thiogalactopyranoside (IPTG). Cells were harvested at 3500 × g for 15 minutes and lysed by sonication in buffer containing 50 mM HEPES pH 7.5, 300 mM NaCl, 10 %v/v glycerol, 5 mM dithiothreitol (DTT), 0.1 %v/v Triton X-100 and protease inhibitor mix HP plus (Serva). The lysate was purified by affinity chromatography on a GSTrap FF column (Cytiva) using an ÄKTA Start (Cytiva) in buffer containing 50 mM HEPES pH 7.5, 300 mM NaCl, 10 %v/v glycerol, 5 mM DTT and 0.01 %v/v Triton X-100. The GST-tag was cleaved overnight on the column at 4 °C. The Aster sterol binding domains were further purified by size-exclusion chromatography (SEC) on a HiLoad 16/600 Superdex 75 pg (Cytiva) in buffer containing 20 mM HEPES pH 7.5, 300 mM NaCl, 10 %v/v […]
(§6) STARD5(6-213) harboring an N-terminal His6-Tag were expressed in E. coli BL21(DE3) in Luria-Bertani Broth (LB) medium for approximately 16 h at 18 °C after induction with 0.15 mM IPTG. Cells were harvested at 3500 × g for 15 minutes and lysed by sonication in buffer containing 50 mM HEPES pH 7.5, 150 mM NaCl, 5 %v/v glycerol, 5 mM DTT, 0.1 %v/v Triton X -100 and ethylenediaminetetraacetic acid (EDTA)-free protease inhibitor cocktail (Sigma-Aldrich). The cleared lysate was purified by affinity chromatography on a Ni-NTA Superflow Cartridge (Qiagen) using an ÄKTA Start (Cytiva) in buffer containing 50 mM HEPES pH 7.5, 150 mM NaCl, 5 %v/v glycerol, 5 mM DTT. START domains were eluted by using elution buffer containing 50 mM HEPES pH 7.5, 150 mM NaCl, 5 %v/v glycerol, 5 mM DTT and 500 mM imidazole. Proteins were further purified by SEC on a HiLoad 16/600 Superdex 75 pg (Cytiva) in buffer containing 20 mM HEPES pH 7.5, 150 mM NaCl, 5 %v/v glycerol and 2 mM DTT.
(§7) The ORP domain of human OSBP(377-807) in the pGEX-6p-1 vector with an N-terminal PreScission-cleavable GST-tag was expressed in E. coli OverExpress C41 in LB medium for 16 h at 18 °C after induction with 0.1 mM IPTG. Cells were harvested at 3500 × g for 15 minutes and lysed by sonication in buffer containing 20 mM HEPES pH 7.5, 300 mM NaCl, 10 %v/v glycerol, 5 mM DTT, 0.1 %v/v Triton X-100 and EDTA-free protease inhibitor cocktail (Sigma-Aldrich). The cleared lysate was purified by affinity chromatography on a GSTrap HF column (Cytiva) using an ÄKTA Start (Cytiva) in buffer containing 20 mM HEPES pH 7.5, 300 mM NaCl, 10 %v/v glycerol, 5 mM DTT. OSBP(377 -807) was eluted by using elution buffer containing 20 mM HEPES pH 7.5, 300 mM NaCl, 10 %v/v glycerol, 5 mM DTT and 10 mM reduced glutathione. Proteins were further purified by SEC on a HiLoad 16/600 Superdex 75 pg (Cytiva) using an ÄKTA Explorer (Cytiva) in buffer containing 20 mM HEPES pH 7.5, 150 mM NaCl, 10 %v/v glycerol and 2 mM DTT.
(§8) The ORP domains of human ORP1(534-950) in pET24b(+) and ORP2(49-480) in the pET24b(+) vector including an N-terminal His6-Tag were expressed in E. coli BL21(DE3) in TB medium for approximately 16 h at 18 °C after induction with 0.1 mM IPTG. Cells were collected at 3500 × g for 15 minutes and lysed by sonification in buffer containing 10 mM Tris-HCl pH 8, 300 mM NaCl, 5 % glycerol, 2 mM DTT, 0.1 % Triton X-100 and EDTA-free protease inhibitor cocktail (Sigma-Aldrich). The cleared […]

A further experiment addresses T2, ORP2 (Homo sapiens, UniProt Q9H1P3).
T2 construct: ORP2(49-480); host or cells: E. coli BL21(DE3)
T2 sequence (Q9H1P3 49-480): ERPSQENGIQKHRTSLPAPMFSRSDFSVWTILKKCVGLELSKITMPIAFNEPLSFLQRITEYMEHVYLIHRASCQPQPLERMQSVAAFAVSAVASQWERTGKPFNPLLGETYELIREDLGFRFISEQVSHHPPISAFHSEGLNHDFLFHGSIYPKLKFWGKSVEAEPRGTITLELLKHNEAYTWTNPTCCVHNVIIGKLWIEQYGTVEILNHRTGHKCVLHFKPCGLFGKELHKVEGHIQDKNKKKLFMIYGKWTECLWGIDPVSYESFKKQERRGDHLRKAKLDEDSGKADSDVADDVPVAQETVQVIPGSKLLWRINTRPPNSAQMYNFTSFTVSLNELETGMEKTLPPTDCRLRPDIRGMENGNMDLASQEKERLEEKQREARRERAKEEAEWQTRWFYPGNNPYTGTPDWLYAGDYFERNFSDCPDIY
Nature of the experiment: Fluorescence polarisation (FP) competition with NBD-cholesterol, ORP2. Type of experiment: binding. As to conditions: for inhibition at 10 µM / ORP2 (FP) inhibition: single dose, Dose = 10 µM.
Text: as §1, §2, §3, §4, §5, §6, §7, §8

`COc1ccc(-c2nc3c(s2)CC[C@@H]2C[C@H](O)CC[C@]32C)cc1` [Compound 8d]: the results for the inhibition at 10 µM at Aster-A and on ORP2 were -1% and 38%, respectively.

On to `C[C@]12CC[C@@H](O)C[C@H]1CCc1sc(-c3ccc(F)cc3)nc12` [Compound 8e], for which the “Aster-A (FP) inhibition” value on Aster-A is -3%. Further, on ORP2, the “ORP2 (FP) inhibition” value turned out to be 25%.

With `C[C@]12CC[C@@H](O)C[C@H]1CCc1[nH]c(-c3ccccc3)nc12` [Compound 9], the inhibition at 10 µM at Aster-A was -2%; on ORP2 it was 3.5%.

Regarding `C[C@]12CC[C@@H](O)C[C@H]1CCc1c2[nH]c2ccccc12` [Compound 10a], the “Aster-A (FP) inhibition” value on Aster-A was 1%. In addition, the “ORP2 (FP) inhibition” value at ORP2 worked out at 34%.

`C[C@]12CC[C@@H](O)C[C@H]1CCc1c2[nH]c2ccc(Br)cc12` [Compound 10b]: the “Aster-A (FP) inhibition” value at Aster-A is given as -9%. In addition, the “ORP2 (FP) inhibition” value at ORP2 was 21%.

As to `C[C@]12CC[C@@H](O)C[C@H]1CCc1c2[nH]c2ccc(Cl)cc12` [Compound 10c], the “Aster-A (FP) inhibition” value on Aster-A came to 1%. For the same compound, at ORP2, the “ORP2 (FP) inhibition” value amounted to 32%.

As to `C[C@]12CC[C@@H](O)C[C@H]1CCc1c2[nH]c2ccc(F)cc12` [Compound 10d], the “Aster-A (FP) inhibition” value at Aster-A is -8%. Also, at ORP2, the “ORP2 (FP) inhibition” value is given as 42%.

For the compound `Cc1ccc2[nH]c3c(c2c1)CC[C@@H]1C[C@H](O)CC[C@]31C` [Compound 10e], the inhibition at 10 µM at Aster-A is -4%; on ORP2, 50.6%.

`COc1ccc2[nH]c3c(c2c1)CC[C@@H]1C[C@H](O)CC[C@]31C` [Compound 10f]: the inhibition at 10 µM on Aster-A was 0%; at ORP2 it was 36.5%.

Take `CC12CCC(O)CC1CCc1c2[nH]c2ccc(C(F)(F)F)cc12` (stereo not drawn) [Compound 10g]: the inhibition at 10 µM was -8% on Aster-A and 57.7% on ORP2.

In the case of `C[C@]12CC[C@@H](O)C[C@H]1CCc1c2[nH]c2ccc(I)cc12` [Compound 10h], the “Aster-A (FP) inhibition” value at Aster-A is 7%. The “ORP2 (FP) inhibition” value at ORP2 is 63.5%.

For the compound `C[C@]12CC[C@@H](O)C[C@H]1CCc1c2[nH]c2c(F)cc(Cl)cc12` [Compound 10i], the inhibition at 10 µM at Aster-A is -8%; at ORP2, 20%.

On to `Cc1cc(C)c2c3c([nH]c2c1)[C@@]1(C)CC[C@@H](O)C[C@H]1CC3` [Compound 10j], for which the inhibition at 10 µM is -2% at Aster-A and 15% at ORP2.

Regarding `CCOC(=O)c1ccc2[nH]c3c(c2c1)CC[C@@H]1C[C@H](O)CC[C@]31C` [Compound 10k], at Aster-A, the “Aster-A (FP) inhibition” value amounted to 1%. Besides, the “ORP2 (FP) inhibition” value on ORP2 was determined as 11%.

`C[C@]12CC[C@@H](O)C[C@H]1CCC(=O)c1ccccc1NC2=O` [Compound 11a]: the “Aster-A (FP) inhibition” value at Aster-A is reported as -1%. Also, at ORP2, the “ORP2 (FP) inhibition” value is 6%.

With `C[C@]12CC[C@@H](O)C[C@H]1CCC(=O)c1cc(Br)ccc1NC2=O` [Compound 11b], the figures for the inhibition at 10 µM at Aster-A and on ORP2 were 1% and 2%, respectively.

Take `Cc1ccc2c(c1)C(=O)CC[C@@H]1C[C@H](O)CC[C@]1(C)C(=O)N2` [Compound 11c]: the inhibition at 10 µM was -4% on Aster-A and -1% at ORP2.

In the case of `COc1ccc2c(c1)C(=O)CC[C@@H]1C[C@H](O)CC[C@]1(C)C(=O)N2` [Compound 11d], the values for the inhibition at 10 µM on Aster-A and on ORP2 were -1% and 11%, respectively.

Take `C[C@]12CC[C@@H](O)C[C@H]1CCC(=O)c1cc(C(F)(F)F)ccc1NC2=O` [Compound 11e]: the inhibition at 10 µM was -2% at Aster-A and 5% at ORP2.

Take `C[C@]12CC[C@@H](O)C[C@H]1CCC(=O)c1cc(Cl)cc(F)c1NC2=O` [Compound 11f]: the “Aster-A (FP) inhibition” value on Aster-A is -1%. Moreover, the “ORP2 (FP) inhibition” value at ORP2 is reported as 7%.

As for `Cc1cc(C)c2c(c1)NC(=O)[C@@]1(C)CC[C@@H](O)C[C@H]1CCC2=O` [Compound 11g], the inhibition at 10 µM at Aster-A was 0%; at ORP2, -1%.

Consider `Cc1ccc2[nH]c3c(c(=O)c2c1)C[C@@H]1C[C@H](O)CC[C@]31C` [Compound 12], for which the inhibition at 10 µM was -1% on Aster-A and 5% at ORP2.

With `Cc1ccc2c(c1)[C@]1(O)CC[C@@H]3C[C@H](O)CC[C@]3(C)C1=N2` [Compound 14a], the figures for the inhibition at 10 µM at Aster-A and at ORP2 were 3% and 53%, respectively.

On to `COc1ccc2c(c1)[C@]1(O)CC[C@@H]3C[C@H](O)CC[C@]3(C)C1=N2` [Compound 14b], for which the inhibition at 10 µM at Aster-A was 8%; on ORP2, 25%.

As to `Cc1cc(C)c2c(c1)N=C1[C@@]2(O)CC[C@@H]2C[C@H](O)CC[C@]12C` [Compound 14c], the inhibition at 10 µM at Aster-A was found to be 2%; at ORP2 it was 11%.

As to `C[C@]12CC[C@@H]3C[C@H]1CC[C@@]21C(=Nc2ccccc21)O3` [Compound 15a], on Aster-A, the IC50 is 7.17 µM and the inhibition at 10 µM was determined as 43%. Further, at ORP2, the inhibition at 10 µM was determined as 25%.

As to `CC12CCC3CC1CCC21C(=Nc2ccc(Cl)cc21)O3` (stereo not drawn) [Compound 15c], the figures for the IC50 on Aster-A and on ORP2 (mean of three experiments run in technical duplicates) were 4.59 µM and 22.2 µM, respectively. Also, the inhibition at 10 µM on Aster-A was determined as 50%; on ORP2, 47%.

Regarding `C[C@]12CC[C@@H]3C[C@H]1CC[C@@]21C(=Nc2ccc(F)cc21)O3` [Compound 15d], the half-maximal inhibitory concentration (IC50) on Aster-A stood at 12.5 µM. Also, the inhibition at 10 µM at Aster-A and on ORP2 was 25% each time.

For the compound `Cc1ccc2c(c1)[C@@]13CC[C@@H]4C[C@@H](CC[C@@]41C)OC3=N2` [Compound 15e], on Aster-A, the IC50 worked out at 6.03 µM. Further, the inhibition at 10 µM at Aster-A was 45%; on ORP2 it was 38%.
